# Measured values reported in patent US9440957B2, “Compounds and compositions for modulating EGFR Activity” (Novartis AG, priority 2012, dated 2016).
# Like-named read-outs stand apart in the source and are kept apart here.
# Key:
# [1] = target: human EGFR L858R/T790M (NIH/3T3 cells) (Homo sapiens, UniProt P00533, L858R/T790M); test: EGFR target modulation in engineered NIH/3T3 cell lines (phospho-EGFR Y1068 AlphaLISA), EGFR L858R/T790M; assay type: cell-based; details: engineered NIH/3T3 cells, read-out: NIH3T3 IC50 (μM) EGFR (L858R/T790M)
# Chain of human EGFR L858R/T790M (NIH/3T3 cells) (P00533 25-1210 T790M/L858R): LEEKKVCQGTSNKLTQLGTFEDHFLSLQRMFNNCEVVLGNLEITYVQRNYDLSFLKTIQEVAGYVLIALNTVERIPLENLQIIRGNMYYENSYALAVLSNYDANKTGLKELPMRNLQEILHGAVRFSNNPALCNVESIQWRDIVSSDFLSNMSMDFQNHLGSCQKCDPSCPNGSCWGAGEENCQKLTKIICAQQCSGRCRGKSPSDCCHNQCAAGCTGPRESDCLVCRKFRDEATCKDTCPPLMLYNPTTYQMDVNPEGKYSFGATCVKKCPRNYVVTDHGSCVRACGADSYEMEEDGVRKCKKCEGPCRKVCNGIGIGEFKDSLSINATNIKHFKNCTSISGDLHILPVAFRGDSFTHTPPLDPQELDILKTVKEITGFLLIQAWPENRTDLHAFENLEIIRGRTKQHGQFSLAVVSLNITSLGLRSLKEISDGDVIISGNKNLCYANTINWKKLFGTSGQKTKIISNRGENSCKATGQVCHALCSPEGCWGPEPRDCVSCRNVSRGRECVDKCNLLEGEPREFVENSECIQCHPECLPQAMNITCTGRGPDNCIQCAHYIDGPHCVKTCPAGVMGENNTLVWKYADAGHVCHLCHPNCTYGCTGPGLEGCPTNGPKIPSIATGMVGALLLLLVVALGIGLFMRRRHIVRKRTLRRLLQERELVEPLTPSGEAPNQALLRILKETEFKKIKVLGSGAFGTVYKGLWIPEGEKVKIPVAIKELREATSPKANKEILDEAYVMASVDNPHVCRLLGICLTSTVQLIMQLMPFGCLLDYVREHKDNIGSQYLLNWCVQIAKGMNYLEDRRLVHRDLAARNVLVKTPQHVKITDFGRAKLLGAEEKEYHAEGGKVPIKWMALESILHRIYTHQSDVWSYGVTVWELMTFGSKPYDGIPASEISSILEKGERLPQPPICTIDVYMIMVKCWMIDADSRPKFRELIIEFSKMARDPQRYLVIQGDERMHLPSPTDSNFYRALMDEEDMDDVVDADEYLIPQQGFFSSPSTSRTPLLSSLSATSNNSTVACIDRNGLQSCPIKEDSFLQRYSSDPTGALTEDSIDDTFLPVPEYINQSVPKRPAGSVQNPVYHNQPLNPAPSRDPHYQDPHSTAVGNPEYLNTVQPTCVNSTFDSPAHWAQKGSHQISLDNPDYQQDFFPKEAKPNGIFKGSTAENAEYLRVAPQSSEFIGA
# Description: (§1) EGFR Target Modulation in Engineered NIH/3T3 Cell Lines Tissue Culture.
# (§2) The cells were harvested with 0.05% Trypsin/EDTA (Hyclone #SH30236.01), re-suspended in 5% FBS/DMEM Pen/Strep without Puromycin and plated at 9,000 cells per well in 50 μl of media in a 384-well black plate with clear bottoms (Greiner #789068G). The cells were allowed to incubate overnight in a 37° C., 5% CO2 humidified tissue culture incubator. A 12-point test compound curve was prepared by serial diluting a 10 μM stock 1:3 in DMSO in a 384-well compound plate (Greiner #789201L). The serial diluted compounds were transferred to the plate containing cells by using a 50 nl Pin Head device (Perkin Elmer) and the cells were placed back in the incubator for 3 hours. Only the EGFR WT-expressing cells were induced with 50 ng/ml EGF (Preprotech #AF-100-15) for 5 minutes before lysis. […] The plates were shaken at 4° C. for 5 minutes with foil top at maximum speed. […] The plates were sealed with a foil top and frozen at −80° C. and thawed when needed.
# (§3) The frozen aliquots were thawed and briefly centrifuged. All antibodies and beads were diluted in 1× AlphaLISA HiBlock Buffer (PE #AL004C). […] Goat anti-total EGFR (R&D Systems #AF231) was added and allowed to equilibrate for 1 hour at room temperature at 1 nM final concentration.
# (§4) With these parameters, the IC50's for each compound in each cell line was calculated using non-linear curve fitting analysis.
# [2] = target: human EGFR L858R (NIH/3T3 cells) (Homo sapiens, UniProt P00533, L858R); test: EGFR target modulation in engineered NIH/3T3 cell lines (phospho-EGFR Y1068 AlphaLISA), EGFR L858R; assay type: cell-based; details: engineered NIH/3T3 cells, read-out: NIH3T3 IC50 (μM) EGFR (L858R)
# Chain of human EGFR L858R (NIH/3T3 cells) (P00533 25-1210 L858R): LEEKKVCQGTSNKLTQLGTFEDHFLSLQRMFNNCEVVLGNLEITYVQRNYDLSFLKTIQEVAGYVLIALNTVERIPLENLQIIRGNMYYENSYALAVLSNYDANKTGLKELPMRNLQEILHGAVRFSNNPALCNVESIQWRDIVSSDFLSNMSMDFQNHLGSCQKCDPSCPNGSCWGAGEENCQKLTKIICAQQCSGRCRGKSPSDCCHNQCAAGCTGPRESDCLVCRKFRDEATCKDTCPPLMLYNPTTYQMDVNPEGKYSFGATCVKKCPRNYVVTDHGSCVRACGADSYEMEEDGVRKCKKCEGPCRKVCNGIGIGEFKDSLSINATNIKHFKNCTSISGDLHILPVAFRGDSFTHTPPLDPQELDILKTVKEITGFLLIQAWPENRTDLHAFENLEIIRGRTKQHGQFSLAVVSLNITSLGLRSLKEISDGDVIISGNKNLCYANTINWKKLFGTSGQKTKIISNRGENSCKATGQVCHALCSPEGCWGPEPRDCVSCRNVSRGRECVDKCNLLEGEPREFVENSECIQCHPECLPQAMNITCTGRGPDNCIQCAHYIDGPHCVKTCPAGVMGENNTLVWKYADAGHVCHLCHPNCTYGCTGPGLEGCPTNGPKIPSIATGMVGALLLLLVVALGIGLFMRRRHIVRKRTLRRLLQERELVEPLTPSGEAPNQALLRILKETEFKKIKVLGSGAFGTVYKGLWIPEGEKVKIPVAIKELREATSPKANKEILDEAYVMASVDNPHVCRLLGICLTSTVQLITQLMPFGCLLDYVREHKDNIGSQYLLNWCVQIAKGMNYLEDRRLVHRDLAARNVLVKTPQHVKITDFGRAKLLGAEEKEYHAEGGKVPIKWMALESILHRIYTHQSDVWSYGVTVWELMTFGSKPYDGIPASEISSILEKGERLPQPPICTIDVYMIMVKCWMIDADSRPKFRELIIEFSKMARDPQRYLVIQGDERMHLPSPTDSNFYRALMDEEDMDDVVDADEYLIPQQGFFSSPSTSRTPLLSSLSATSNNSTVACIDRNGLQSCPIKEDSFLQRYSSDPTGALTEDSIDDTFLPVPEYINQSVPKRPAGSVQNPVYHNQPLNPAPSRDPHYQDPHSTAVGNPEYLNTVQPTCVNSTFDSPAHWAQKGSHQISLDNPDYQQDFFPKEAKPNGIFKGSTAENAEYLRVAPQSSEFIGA
# Description: as §1, §2, §3, §4
# [3] = target: human EGFR WT (NIH/3T3 cells, EGF-induced) (Homo sapiens, UniProt P00533); test: EGFR target modulation in engineered NIH/3T3 cell lines (phospho-EGFR Y1068 AlphaLISA), EGFR WT; assay type: cell-based; details: engineered NIH/3T3 cells, read-out: NIH3T3 IC50 (μM) EGFR (WT)
# Chain of human EGFR WT (NIH/3T3 cells, EGF-induced) (P00533 25-1210): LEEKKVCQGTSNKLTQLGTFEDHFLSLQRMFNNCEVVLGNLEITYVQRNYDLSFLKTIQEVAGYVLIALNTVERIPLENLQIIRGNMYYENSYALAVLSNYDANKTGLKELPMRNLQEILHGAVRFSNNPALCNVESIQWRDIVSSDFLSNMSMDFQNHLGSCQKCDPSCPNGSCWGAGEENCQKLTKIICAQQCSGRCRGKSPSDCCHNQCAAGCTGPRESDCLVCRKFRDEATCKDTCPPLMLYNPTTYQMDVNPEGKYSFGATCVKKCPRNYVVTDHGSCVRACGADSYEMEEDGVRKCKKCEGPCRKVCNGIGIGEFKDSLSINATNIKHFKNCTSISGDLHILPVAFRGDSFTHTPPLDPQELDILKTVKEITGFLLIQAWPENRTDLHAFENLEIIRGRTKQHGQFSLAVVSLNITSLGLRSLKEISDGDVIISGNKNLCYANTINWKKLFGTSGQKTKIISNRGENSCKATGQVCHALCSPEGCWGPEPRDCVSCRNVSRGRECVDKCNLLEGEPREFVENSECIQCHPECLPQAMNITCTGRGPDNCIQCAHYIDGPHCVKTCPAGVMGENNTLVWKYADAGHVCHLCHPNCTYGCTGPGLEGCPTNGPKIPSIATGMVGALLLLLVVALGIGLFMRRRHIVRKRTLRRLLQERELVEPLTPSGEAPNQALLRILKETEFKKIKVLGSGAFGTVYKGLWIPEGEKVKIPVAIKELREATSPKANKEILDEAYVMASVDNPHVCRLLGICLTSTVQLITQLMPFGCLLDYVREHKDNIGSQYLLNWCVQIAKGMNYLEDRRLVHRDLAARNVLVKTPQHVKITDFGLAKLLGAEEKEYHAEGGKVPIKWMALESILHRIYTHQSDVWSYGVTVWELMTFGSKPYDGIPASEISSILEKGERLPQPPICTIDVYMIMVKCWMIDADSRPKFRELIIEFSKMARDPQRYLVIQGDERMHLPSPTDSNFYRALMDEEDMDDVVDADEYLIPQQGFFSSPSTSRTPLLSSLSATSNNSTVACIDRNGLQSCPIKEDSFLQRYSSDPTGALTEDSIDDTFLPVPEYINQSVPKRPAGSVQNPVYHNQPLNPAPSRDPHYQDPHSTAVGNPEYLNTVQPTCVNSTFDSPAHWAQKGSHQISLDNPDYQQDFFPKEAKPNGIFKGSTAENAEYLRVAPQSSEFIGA
# Description: as §1, §2, §3, §4
# [4] = target: T1, EGFR(L858R/T790M) (Homo sapiens, UniProt P00533, L858R/T790M); test: EGFR biochemical assay (HTRF), IC50 determinations
# T1 construct: purchased from Carna (GST-a.a. 669-1210)
# T1 sequence (P00533 669-1210 T790M/L858R): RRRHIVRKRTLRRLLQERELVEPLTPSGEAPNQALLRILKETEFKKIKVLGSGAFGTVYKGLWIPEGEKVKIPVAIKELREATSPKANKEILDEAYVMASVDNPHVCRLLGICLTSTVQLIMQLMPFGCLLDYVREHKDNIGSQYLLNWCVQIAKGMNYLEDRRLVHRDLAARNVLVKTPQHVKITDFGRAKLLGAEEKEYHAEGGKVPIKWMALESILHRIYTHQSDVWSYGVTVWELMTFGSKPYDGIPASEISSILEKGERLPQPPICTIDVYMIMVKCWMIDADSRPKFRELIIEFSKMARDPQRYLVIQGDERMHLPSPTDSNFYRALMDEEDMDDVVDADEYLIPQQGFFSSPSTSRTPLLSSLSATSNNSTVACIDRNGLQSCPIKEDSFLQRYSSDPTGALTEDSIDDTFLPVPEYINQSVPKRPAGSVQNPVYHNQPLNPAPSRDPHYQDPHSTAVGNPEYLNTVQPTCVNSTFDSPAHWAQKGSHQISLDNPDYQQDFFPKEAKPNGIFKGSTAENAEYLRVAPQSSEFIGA
# Description: All EGFR biochemical assays were carried out by HTRF method. […] The substrate peptide Biotin-TK-peptide was purchased from Cis-Bio. […] All reactions were carried out at room temperature in white ProxiPlate™ 384-well Plus plates (PerkinElmer) and were quenched with 5 μL of 0.2 M EDTA at 60 min. Five L of the detection reagents (2.5 ng PT66K and 0.05 μg SAXL per well) were added, the plates were incubated at room temperature for 1 h and then read in EnVision reader. […] For no-preincubation condition, the compounds were added to the assay solution containing ATP and peptide, and the reaction was initiated by addition of enzyme. For pre-incubation conditions, the compounds were added to the assay solution containing enzyme and peptide, and pre-incubated at room temperature for desired period of time, then the reaction was initiated by addition of ATP.
# [5] = EGFR (L858R/T790M) with 90 min pre-incubation, read-out: IC50 (μM) Column B
# [6] = EGFR (L858R/T790M) with no pre-incubation, read-out: IC50 (μM) Column A
Compound,IC50 [1],IC50 [2],IC50 [3],"IC50 [4, 5]","IC50 [4, 6]"
C=CC(=O)N1CCCCC(n2c(NC(=O)c3ccccc3)nc3cccc(C(=O)NCCC(=O)OC)c32)C1 (centres unmarked) [Example 17-134],0.073 µM,0.63 µM,> 10 µM,0.01 µM,0.93 µM
C=CC(=O)N1CCCCC(n2c(NC(=O)c3ccccc3)nc3cccc(C(=O)NCC(=O)OC)c32)C1 (centres unmarked) [Example 17-135],0.045 µM,0.4 µM,> 10 µM,0.008 µM,0.62 µM
C=CC(=O)N1CCCCC(n2c(NC(=O)c3ccccc3)nc3cccc(C(=O)NCCC(=O)O)c32)C1 (centres unmarked) [Example 17-136],6.5 µM,> 10 µM,8.2 µM,0.03 µM,1.76 µM
C=CC(=O)N1CCCCC(n2c(NC(=O)c3ccccc3)nc3cccc(C(=O)NCC(=O)O)c32)C1 (centres unmarked) [Example 17-137],7.9 µM,> 10 µM,> 10 µM,0.044 µM,1.55 µM
C=CC(=O)N1CCCCC(n2c(NC(=O)c3ccccc3)nc3cccc(-c4nc(C)no4)c32)C1 (centres unmarked) [Example 17-138],0.067 µM,0.45 µM,> 10 µM,0.009 µM,0.147 µM
C=CC(=O)N1CCCCC(n2c(NC(=O)c3ccccc3)nc3cccc(C(=O)NCCS(C)(=O)=O)c32)C1 (centres unmarked) [Example 17-139],0.043 µM,0.305 µM,> 9.1 µM,0.005 µM,0.147 µM
C=CC(=O)N1CCCCC(n2c(NC(=O)c3ccccc3)nc3cccc(C(=O)N4C[C@@H](O)[C@H](O)C4)c32)C1 (some centres unmarked) [Example 17-140],0.181 µM,1.64 µM,7.9 µM,0.043 µM,0.94 µM
C=CC(=O)N1CCOCC(n2c(NC(=O)c3ccccc3)nc3cccc(-c4nc(C)no4)c32)C1 (centres unmarked) [Example 17-141],0.097 µM,0.68 µM,7.8 µM,0.01 µM,0.247 µM
CN(C)C/C=C/C(=O)N1CCC[C@@H](n2c(NC(=O)c3cccc(C(F)(F)F)c3)nc3cc(CO)ccc32)C1 [Example 17-143],0.046 µM,0.313 µM,> 10 µM,0.014 µM,0.233 µM
C=CC(=O)N1CCCC[C@@H](n2c(NC(=O)c3ccnc(C)c3)nc3cc(CN4CC[C@H](O)C4)cc(C)c32)C1 [Example 17-146],0.004 µM,0.003 µM,0.137 µM,< 0.001 µM,0.002 µM
C=CC(=O)N1CCCC(n2c(NC(=O)c3cccc(C(F)(F)F)c3)nc3c2CCN(C(=O)OC)C3)C1 (centres unmarked) [Example 17-167],0.14 µM,4.8 µM,> 10 µM,0.128 µM,2.62 µM
C=CC(=O)N1CCCC(n2c(NC(=O)c3cccc(C(F)(F)F)c3)nc3c2CCN(S(C)(=O)=O)C3)C1 (centres unmarked) [Example 17-168],0.072 µM,0.6 µM,> 2.77 µM,0.095 µM,1.11 µM
C=CC(=O)N1CCCC(n2c(NC(=O)c3cccc(C(F)(F)F)c3)nc3c2CCN(C(C)=O)C3)C1 (centres unmarked) [Example 17-169],0.14 µM,1.75 µM,8.2 µM,0.186 µM,1.75 µM
C=CC(=O)N1CCCC(n2c(NC(=O)c3cccc(C(F)(F)F)c3)nc3c2CN(C(=O)OC)CC3)C1 (centres unmarked) [Example 17-170],0.01 µM,0.39 µM,> 10 µM,0.006 µM,0.66 µM
C=CC(=O)N1CCCC(n2c(NC(=O)c3cccc(C(F)(F)F)c3)nc3c2CN(S(C)(=O)=O)CC3)C1 (centres unmarked) [Example 17-171],0.16 µM,1.86 µM,9.9 µM,0.316 µM,2.4 µM
C=CC(=O)N1CCCC(n2c(NC(=O)c3cccc(C(F)(F)F)c3)nc3c2CN(C(C)=O)CC3)C1 (centres unmarked) [Example 17-172],0.173 µM,1.4 µM,8.7 µM,0.268 µM,1.75 µM
